# From patent US20230295236A1, “COMPOUNDS FOR USE IN INFLAMMATORY CONDITIONS” (priority 2020, published 2023)
# Like-named read-outs stand apart in the source and are kept apart here. Numbered stars: 1 amine (or outer) side, 2 acyl side, 3 side chain; on linkers, the order of the positions; unused ones are H or OH. Bridge positions count the residues as written; N and C are the ends. Square brackets hold non-standard residues; d marks the D form. Peptide text beside a SMILES is read from it. * marks the point of attachment. Benzothiophen(2-yl)carbonyl = O=C(c1cc2ccccc2s1)*; X2 = CC[C@H](C)[C@@H](N[*:1])[C@@H](O)CC(=O)[*:2]; NMeY = CN[C@@H](Cc1ccc(O)cc1)C(=O)O; dNMeL = CN[C@H](CC(C)C)C(=O)O; Hiv = CC(C)[C@H](O)C(=O)O; Aib = CC(C)(N)C(=O)O
# Assays:
# [1] = test system: IL6, IL8, IL1β and TNF-α secretion; experiment: Plitidepsin pre-treatment of THP-1 NFκB luc cells before Resiquimod: cytokines; assay type: cell-based, human; conditions: 1, 10 or 50 nM added 8 hours before Resiquimod 2.5 or 5 µg/mL; measured at 24 hours
# Description: (§1) In a further in vitro experiment, the effect of plitidepsin (APL) pre-treatment on THP-1 cells was studied. Using a THP-1 NFκB luc line, 1, 10 or 50 nM of APL or DMSO (0.2%) was added 8 hours before stimulus with Resiquimod (RQ) at 2.5 or 5 µg/mL. RQ is a TLR⅞ agonist and mimics ssRNA. At 24 hours the level of cytokines or cell viability was measured.
# THP-1 cells = experiment: Plitidepsin pre-treatment of THP-1 NFκB luc cells before Resiquimod: cell viability; assay type: cell-based, human; conditions: 1, 10 or 50 nM added 8 hours before Resiquimod 2.5 or 5 µg/mL; measured at 24 hours
# Description: as §1
# TNFα = experiment: Resiquimod-triggered TNFα in BALF of mice; assay type: in vivo; conditions: mice 1 mg/kg i.v. 1 hour before 50 µg/mouse intranasal resiquimod; 1 and 3 hours
# alveolar macrophages = experiment: LPS animal inflammation model: macrophages in bronchoalveolar lavage by flow cytometry; assay type: in vivo, mouse; conditions: mice 1 mg/kg single i.v., LPS 20 µg/kg i.p.
# Source text: Three hours later, bronchoalveolar lavages were collected.
# HCoV-229E = assay type: cell-based
# SARS-CoV-2 = experiment: APLICOV-PC clinical study in patients hospitalised for COVID-19: efficacy; assay type: in vivo, human
# [2] = test system: Huh-7 cells (human hepatoma cell line)
# [3] = test system: HIV-1 recombinant virus (NL4.3 Luc); assay type: cell-based; conditions: MT-2 cells
# [4] = test system: HIV-1 recombinant virus (NL4.3 Luc); assay type: cell-based; conditions: PBMCs
compound,measurement,setting,value
"CC[C@H](C)[C@H]1NC(=O)[C@@H](NC(=O)[C@H](CC(C)C)N(C)C(=O)[C@@H]2CCCN2C(=O)C(C)=O)[C@@H](C)OC(=O)[C@H](Cc2ccc(OC)cc2)N(C)C(=O)[C@@H]2CCCN2C(=O)[C@H](CC(C)C)NC(=O)[C@@H](C)C(=O)[C@H](C(C)C)OC(=O)C[C@@H]1O [PLD, Plitidepsin]","Secretion of IL6, IL8, IL1β and TNF-α induced by RQ",[1],"inhibited secretion of the pro-inflammatory cytokines: IL6, IL8, IL1β and TNF-α"
same,Cell viability,THP-1 cells,does not decrease viability over the untreated control
same,Resiquimod-induced TNFα production in BALF,TNFα,prevented the increased production of TNFα
same,Macrophages in bronchoalveolar lavage,alveolar macrophages,reduces the number of macrophages in BAL
same,Antiviral activity (GFP fluorescence images),HCoV-229E,remarkable antiviral properties are seen across all concentrations
same,Median time for PCR conversion,SARS-CoV-2,7 days
same,Evaluable patients requiring post PLD specific anti COVID 19 therapy,SARS-CoV-2; interim results,2 out of 8
same,Evaluable patients with disease control and major clinical improvements,SARS-CoV-2; interim results,6 out of 8
same,Evaluable patients with PCR conversion to negative,"SARS-CoV-2; interim results, 1.5 mg and 2 mg cohorts",6 out of 8
same,Deaths on study,"SARS-CoV-2; interim results, 9 patients",no deaths on study
same,Need for mechanical ventilation or ICU admission,"SARS-CoV-2; interim results, 9 patients",none of the patients required mechanical ventilation or ICU admission
same,Median time to hospital discharge,"SARS-CoV-2; interim results, range (7 -19)",8 days
same,Cell growth / viability (DAPI fluorescence images),[2],cells remain viable at all concentrations
CC[C@H](C)[C@H]1NC(=O)[C@@H](NC(=O)[C@@H](CC(C)C)N(C)C(=O)[C@@H]2CCCN2C(=O)[C@H](C)NC(=O)[C@@H](Cc2ccccc2)NC(=O)OC(C)(C)C)[C@@H](C)OC(=O)[C@H](Cc2ccc(OC)cc2)N(C)C(=O)[C@@H]2CCCN2C(=O)[C@H](CC(C)C)NC(=O)[C@@H](C)C(=O)[C@H](C(C)C)OC(=O)C[C@@H]1O [Compound 9],Antiviral activity (GFP fluorescence images),HCoV-229E,remarkable antiviral properties are seen across all concentrations
same,Cell growth / viability (DAPI fluorescence images),[2],cells remain viable at all concentrations
CC[C@H](C)[C@H]1NC(=O)[C@@H](NC(=O)[C@@H](CC(C)C)N(C)C(=O)c2cc3ccccc3s2)[C@@H](C)OC(=O)[C@H](Cc2ccc(OC)cc2)N(C)C(=O)[C@@H]2CCCN2C(=O)[C@H](CC(C)C)NC(=O)[C@H](C(C)C)OC(=O)C[C@@H]1O [Compound 10] ({Benzothiophen(2-yl)carbonyl}-[dNMeL]T[X2][Hiv]LP[NMeY](Me); ester 2-C),Antiviral activity (GFP fluorescence images),HCoV-229E,remarkable antiviral properties are seen across all concentrations
same,Cell growth / viability (DAPI fluorescence images),[2],cells remain viable at all concentrations
CC[C@H](C)[C@H]1NC(=O)[C@@H](NC(=O)[C@H](CC(C)C)N(C)C(=O)[C@@H]2CCCN2C(=O)C(C)=O)[C@@H](C)OC(=O)[C@H](Cc2ccc(OC)cc2)N(C)C(=O)[C@@H]2CCCN2C(=O)[C@H](CC(C)C)NC(=O)[C@@H](C)C(=O)[C@H](C(C)C)OC(=O)C[C@@H]1O [Compound 8],Antiviral activity,[3],antiviral activity
same,Antiviral activity,[4],antiviral activity
CC[C@H](C)[C@H]1NC(=O)[C@@H](NC(=O)[C@@H](CC(C)C)NC)[C@@H](C)OC(=O)[C@H](Cc2ccc(OC)cc2)N(C)C(=O)[C@@H]2CCCN2C(=O)[C@H](CC(C)C)NC(=O)C(C)(C)NC(=O)C[C@@H]1O [Compound 3] (H-[dNMeL]T[X2][Aib]LP[NMeY](Me); ester 2-C),Toxic concentrations (not reached at),MT-2 cells,> 57.3 µM
